Tests used:
GST-tagged SIRT6 = biological target: T1, GST-tagged SIRT6 (Homo sapiens, UniProt Q8N6T7); test: HPLC-based SIRT6 deacetylation assay with H3K9Ac peptide; type: biochemical;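 note: recombinant SIRT6 incubated 30 min at 37 °C with 500 µM NAD+ and H3K9Ac peptide, deacetylated H3K9 quantified by reversed-phase HPLC-MRM peak area versus DMSO control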
T1 construct: made in house; host or cells: E. coli BL21(DE3)-pRARE

GST-SIRT6 = biological target: T2, GST-SIRT6 (Homo sapiens, UniProt Q8N6T7); test: In vitro SIRT6 deacetylation of core histones, western blot of H3K9Ac; type: biochemical; conditions: 100 µM
T2 construct: made in house; host or cells: E. coli BL21(DE3)-pRARE
Protocol: Western blot analysis was carried out as previously described, with slight modifications. […] The reaction was stopped with Laemmli (sample buffer) and separated by SDS-PAGE using 10–20% gradient gels and transferred onto polyvinylidene difluoride (PVDF) membranes. H3K9 acetylation was detected with rabbit anti-acetyl H3K9 antibody followed by anti-rabbit HRP-conjugated secondary antibody. Membranes were stripped and re-probed with rabbit anti-histone H3 antibody. Chemiluminescent signal detection and image acquisition were carried out using ECL prime western blotting detection reagents.
3 μg/well of a purified recombinant GST‐SIRT6 protein, 1.25 μg purified whole chicken core histones with 500 μM NAD+ in 25 mM Tris‐HCl, pH 8.0. Analysis were repeated three times and one representative cropped blot is shown (A). Uncropped blots probed with H3K9Ac (B), H3 (C). […]

[1] = tested on: SIRT6 protein expression in Caco-2 cells; test: Immunoblotting of SIRT6 protein expression in Caco-2 cells; type: cell-based, human; conditions: 24 h; for SIRT6 expression, in words: Caco-2 cells
Protocol: (§1) After the treatment, conditions of the cells were evaluated under a light microscope (Fig. 3A). […] Full-length blots are presented in Supplementary Fig. S4.
(§2) (B) Immunoblotting analysis of SIRT6 protein. SIRT6 protein levels (MW: 39 kDa) were normalized relative to α-tubulin (MW: 50 kDa) and quantification is represented as fold change respect to control. Values are expressed as mean ± SEM of four independent experiment (*p values < 0.05; one way-ANOVA). SIRT6 expression were determined by immunoblotting (B).
(§3) Caco-2 cells (passage 30–40) were cultured in DMEM with 10% FBS, 1% nonessential amino acids, 2 mM L-glutamine, 100 units/ml of penicillin, and 100 µg/ml of streptomycin at +37 °C. Cells were cultured 14 days before the treatments. For the immunoblotting, cells were seeded on 24-well plates (1 × 10^5 cells/well).
(§4) After treatment, medium was discarded and cells were washed twice with ice-cold PBS. RIPA buffer was added to the cells and incubated for 30 min. Cell suspensions were collected and centrifuged (13,000 rpm, 20 min +4 °C). Supernatant containing the proteins were aliquoted and stored at −80 °C. Sample protein concentrations were measured with Bradford Assay (Bio-Rad DC^TM Protein Assay).
Immunoblotting was performed according to standard protocols from four independent experiments. Briefly, protein samples (18 µg/sample) were separated by SDS-PAGE using 10–20% gradient gels and transferred onto PVDF membranes. Membranes were blocked in 3% non-fat dry milk and further incubated with primary rabbit anti- FoxO3α (1:2000), anti-GLUT1 (1:1000), anti-H3, anti-SIRT6 (1:2000), anti-Twist (1:2000) anti-α-tubulin (1:8000) antibodies overnight at +4 °C. HRP-conjugated secondary antibodies (goat anti-rabbit, goat anti-mouse) were incubated for 1 hour at room temperature and proteins were detected using ELC prime western blotting system. Densitometric analysis of protein bands was carried out using ImageJ 1.32 software and the data were normalized by α-tubulin (loading control).

[2] = tested on: FoxO3α protein expression in Caco-2 cells; test: Immunoblotting of FoxO3α protein expression in Caco-2 cells; type: cell-based, human; conditions: Caco-2, 24 h, 50 and 100 µM
Protocol: as §1
(§5) FoxO3α, Twist1 and GLUT1 expression were quantified and normalised with α-tubulin or H3. Data represent the mean ± SEM of three independent experiments,*p < 0.05, **p < 0.01 and ***p < 0.001 between the indicated groups.
as §3, §4
(§6) Immunoblotting was performed according to standard protocols from four independent experiments. […] HRP-conjugated secondary antibodies (goat anti-rabbit, goat anti-mouse) were incubated for 1 hour at room temperature and proteins were detected using ELC prime western blotting system. […]

[3] = tested on: Twist1 protein expression in Caco-2 cells; test: Immunoblotting of Twist1 protein expression in Caco-2 cells; type: cell-based, human; conditions: Caco-2, 24 h, 100 µM
Protocol: as §1, §5, §3, §4, §6

[4] = tested on: GLUT1 protein expression in Caco-2 cells; test: Immunoblotting of GLUT1 protein expression in Caco-2 cells; type: cell-based, human; conditions: Caco-2, 24 h, 100 µM
Protocol: as §1, §5, §3, §4, §6

Caco-2 cells = test: Light microscopy of Caco-2 cells after treatment; type: cell-based, human; conditions: 200 µM
Protocol: as §1, §2, §3

T1 sequence (Q8N6T7 whole entry): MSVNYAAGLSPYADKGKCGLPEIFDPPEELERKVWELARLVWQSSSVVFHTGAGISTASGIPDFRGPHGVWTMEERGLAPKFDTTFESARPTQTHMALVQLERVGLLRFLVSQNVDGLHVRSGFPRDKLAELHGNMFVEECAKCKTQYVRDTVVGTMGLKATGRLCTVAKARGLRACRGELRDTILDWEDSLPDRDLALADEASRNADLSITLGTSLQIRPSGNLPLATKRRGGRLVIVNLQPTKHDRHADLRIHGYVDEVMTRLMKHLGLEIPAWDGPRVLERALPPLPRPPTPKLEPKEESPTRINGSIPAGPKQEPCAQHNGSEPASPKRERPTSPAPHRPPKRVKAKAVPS
T2 sequence (Q8N6T7 whole entry): as above

For `Oc1cc(O)c2cc(O)c(-c3ccc(O)c(O)c3)[o+]c2c1` [Compound 17, Cyanidin], the “SIRT6 activation, in words” value (GST-tagged SIRT6) was “increase in deacetylase activity”, the “Activation 100 µM” value (GST-tagged SIRT6; 100 µM compound, 40 µM H3K9Ac, mean ± SD, n=3, fold per Fig. 2C legend) was 2.6 ± 0.1 fold and the inhibition at 100 µM (GST-tagged SIRT6; 100 µM compound, mean ± SD, n=3) was 0%. For the same compound, the “Increase of deacetylation activity (H3K9Ac on core histones)” value (GST-SIRT6) was roughly 2.5 fold, the SIRT6 expression up-regulation ([1]; Caco-2, 50–100 µM, relative to control) was 3.5 fold and the “SIRT6 expression, in words” value [1] was “effective in a dose-dependent manner”. For the same compound, the “SIRT6 expression, in words” value ([1]; listed as Cyanidin) was “significantly increased SIRT6 expression”, the “FoxO3α protein expression, in words” value [2] was “enhanced the protein expression of FOXO3 significantly” and the “Twist1 expression, in words” value [3] was “downregulated”. For the same compound, the “GLUT1 expression, in words” value [4] was “downregulated” and the “Precipitation in cell culture medium” value (Caco-2 cells) was “precipitated out of solution”.

From article PMC5841289, “Natural polyphenols as sirtuin 6 modulators” (Scientific Reports, 2018)
